Source: patent publication US10314883B2, “Compositions and methods for regulating blood pressure” (University of Virginia Patent Foundation, priority 2015, dated 2019)

Legend:
[1] = system: thoracodorsal arteries (TDA); assay: ATP release from intact TDA (luciferin:luciferase); format: cell-based, mouse; conditions: for effect on phenylephrine-induced ATP release from intact TDAs: phenylephrine 100 μmol/L, ^10Panx1 300 μmol/L, peptides 3 μmol/L
Method: Mouse TDAs of equal length were isolated and washed thoroughly to eliminate red blood cells. Vessels were placed in a well of a 96-well plate containing Krebs-HEPES solution supplemented with 1% BSA at 37° C. for 30 minutes to allow for degradation of any ATP released as a result of mechanical stimulation during manipulation of the vessel. For measurements performed on HEK cells: 24 hours after transfection, cells cultured in 24-well plates were cautiously washed twice with warm Krebs-HEPES-BSA and 300 μl of Krebs-HEPES-BSA was added to each well after the last wash as previously described. The plate was then kept in the incubator at 37° C. with 5% CO2 for 30 minutes to allow for degradation of ATP eventually released during the washes.
The ectonucleotidase inhibitor ARL67156 (300 μmol/L) was applied to each well. When indicated, ^10Panx1 (300 μmol/L) or the peptides analog to intracellular regions of Panx1 (3 μmol/L) were added along with the ARL67156. After a 30 minute incubation at 37° C. with the inhibitor(s), phenylephrine (100 μmol/L) or equivalent volume of Krebs-HEPES-BSA was added and the plate was kept at 37° C. After five minutes of phenylephrine stimulation, the media surrounding the TDA or the cells was transferred to an Eppendorf tube and centrifuged for five minutes at 5,000×g to eliminate eventual cell debris. Fifty microliters of the supernatant was transferred to a white-wall 96 well plate and placed in a FluoStar Omega luminometer. The ATP concentration was measured by adding 50 μL of luciferin:luciferase reagent (ATP bioluminescence assay kit HSII; Roche), which was injected into each well and the luminescence was immediately recorded. Data are expressed as a percent increase in ATP concentration compared to unstimulated condition. Each stimulated condition was compared to unstimulated condition performed on the same day, and all experiments were performed on at least 15 wells of HEK cells or three TDAs. Data were analyzed using a Kruskall Wallis test (non-parametric one-way ANOVA) followed by Dunn's post-hoc test.
To determine if the TDA response involved release of ATP, we dissected TDAs from C57Bl/6 mice and measured the accumulation of extracellular ATP in response to various agonists in the medium (FIG. 1E, inset). The TDAs were placed in a well of a 96 well plate in Krebs-HEPES solution and treated with the ectonucleotidase inhibitor ARL67156 for 30 minutes. Next, arteries were treated with a contractile agonist for five minutes and the amount of ATP in the media surrounding the vessel was determined using the ATP bioluminescence assay kit HSII (Roche).

Panx1 [2] = biological target: T1, Panx1 (Mus musculus, UniProt Q9JIP4); assay: Whole-cell patch clamp of CBX-sensitive Panx1 current in HEK293 cells cotransfected with mPanx1 and α1DAR; format: cell-based; conditions: phenylephrine 20 μmol/L; for effect on phenylephrine-induced Panx1 current: cells pre-incubated with peptide 40-60 minutes
T1 construct: we progressively substituted amino acids in this region of full-length Panx1 with alanine residues; HA; expressed in transfected cells; host or cells: HEK293T cells, transient co-transfection with alpha1DAR plasmid (Origene, NM_013460, C-terminal Myc-DDK)
Method: (§1) Human Embryonic Kidney (HEK) 293T cells were cultured as previously described, and were used until passage 20. For ATP measurements, 50,000 cells/well were seeded in 24 well plates pre-coated with 0.01% poly-L-lysine, and transfected using Lipofectamine 2000 (Invitrogen) according to the manufacturer protocol. Briefly, 0.4 μg of α1DAR and 0.4 μg of Panx1^WT, Panx1^KYP>AAA, Panx1^IVEQ>AAA or Panx1^YLK>AAA plasmids were added to each well along with 2 μl of Lipofectamine 2000. For electrophysiology measurements, 4 μg of α1DAR plasmid, 2 μg of Panx1^WT, Panx1^KYP>AAA, Panx1^IVEQ>AAA or Panx1^YLK>AAA plasmids, and 0.5 μg of GFP plasmid were mixed with 10 μl Lipofectamine 2000 and added to a well of 6-well plate seeded with ˜70% confluent HEK cells. Cells were split the next morning and plated onto a glass coverslip for recording. ATP measurements and whole-cell recordings were performed 24 hours after transfection.
Whole-cell recordings were obtained at room temperature from transiently transfected HEK293T cells using Axopatch 200B amplifier (Molecular Devices) in a bath solution composed of 140 mmol/L NaCl, 3 mmol/L KCl, 2 mmol/L MgCl2, 2 mmol/L CaCl2, 10 mmol/L HEPES and 10 mmol/L glucose (pH 7.3). Patch pipettes (3-5 MΩ) were filled with a Cs-/TEA-based internal solution, as previously described. Ramp voltage commands with 7-s intervals were applied using pCLAMP software and Digidata1322A digitizer (Molecular Devices). Peak whole-cell currents were determined at +80 mV and normalized to cell capacitance. Current mediated by Panx1 was defined by its sensitivity to carbenoxolone (CBX). In this system, no CBX-sensitive current is observed in HEK293T cells without Panx1. Basal current was recorded for approximately two minutes and PE (20 μmol/L) was applied to the bath solution, which was followed by addition of CBX (50 μmol/L). When indicated, cells were pre-incubated with bath solution containing IL2 peptide or its scrambled version at room temperature for 40-60 minutes prior to the experiment. The effect of PE on Panx1 current was quantified relative to CBX-sensitive basal current, and data was expressed as percent increase in CBX-sensitive current. All experiments were performed on 8 to 22 cells for each conditions tested. Data were analyzed using a Kruskall Wallis test (non-parametric one-way ANOVA) followed by Dunn's post-hoc test.
To test if α1AR stimulation triggered opening of the Panx1 channel and the importance of the region represented by the IL2 peptide, we cotransfected mPanx1 and α1DAR into HEK293 cells and monitored whole-cell currents by patch clamp electrophysiology.

Panx1 [3] = biological target: T1, Panx1; assay: ATP release from HEK293 cells cotransfected with mPanx1 and α1DAR; format: cell-based; conditions: peptide 3 μmol/L, phenylephrine 100 μmol/L
Method: as §1, with “ATP measurements and whole-cell recordings were performed 24 hours after transfection.” left out
The ectonucleotidase inhibitor ARL67156 (300 μmol/L) was applied to each well. […] The ATP concentration was measured by adding 50 μL of luciferin:luciferase reagent (ATP bioluminescence assay kit HSII; Roche), which was injected into each well and the luminescence was immediately recorded. Data are expressed as a percent increase in ATP concentration compared to unstimulated condition. […] Data were analyzed using a Kruskall Wallis test (non-parametric one-way ANOVA) followed by Dunn's post-hoc test.

T1 sequence (Q9JIP4 whole entry): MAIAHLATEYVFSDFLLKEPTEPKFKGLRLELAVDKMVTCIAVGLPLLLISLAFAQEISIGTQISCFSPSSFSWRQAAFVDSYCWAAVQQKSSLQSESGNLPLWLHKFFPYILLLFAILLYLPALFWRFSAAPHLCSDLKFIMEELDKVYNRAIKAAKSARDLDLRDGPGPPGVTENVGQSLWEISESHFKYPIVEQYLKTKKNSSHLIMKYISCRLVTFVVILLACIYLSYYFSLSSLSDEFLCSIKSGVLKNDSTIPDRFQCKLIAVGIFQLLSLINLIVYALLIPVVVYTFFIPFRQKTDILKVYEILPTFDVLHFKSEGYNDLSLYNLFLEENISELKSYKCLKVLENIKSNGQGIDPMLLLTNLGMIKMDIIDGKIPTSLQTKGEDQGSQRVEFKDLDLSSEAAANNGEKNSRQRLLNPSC

Row | Molecule | ATP release from intact TDAs in response to agonist ([1]; five minutes of agonist, ARL67156 300 μmol/L) | effect of agonist on Panx1 whole-cell current (Panx1 [2]; cells expressing both mPanx1 and α1DAR) | effect on phenylephrine-induced ATP release from intact TDAs [1] | effect on phenylephrine-induced ATP release (Panx1 [3]) | effect on phenylephrine-induced Panx1 current (Panx1 [2])
1 | CNC[C@H](O)c1cccc(O)c1 [Phenylephrine, phenylephrine] | stimulated ATP release | increased this current | – | – | –
2 | KYPIVEQYLKYGRKKQRRR [IL2] | – | – | significantly decreased | significantly decreased | significantly decreased
3 | scrambled intracellular loop 2 IYLYVEQKPY (SEQ ID NO: 7) linked with a TAT sequence [Scrambled IL2] | – | – | no effect | no effect | no effect
